Test results reported in patent US4196205A, “3-Acetoxymethyl-7-(iminoacetamido)-cephalosporanic acid derivatives” (priority 1976, dated 1980).
In brackets after ≈: the same amount, converted by molar mass. Like-named read-outs stand apart in the source and are kept apart here.

Columns and labels:
Proteus Mirabilis A 235 = assay: Experimental infection of Proteus Mirabilis in mice; format: in vivo
Protocol: Groups of 10 mice with an average weight of 22 g received intraperitoneally 0.5 ml of a 24 hour old culture in oxoid bouillon of Proteus Mirabilis A 235 diluted 1/4 with distilled water. The mice then received subcutaneously the compound of Examples 11 or 15 one hour and 5 and 24 hours after the infection and the results are reported in the following Table.

[1] = test system: Staphylococcus aureus exp. n° 54 146; assay: MIC, dilution in liquid medium; format: cell-based; details: Staphylococcus aureus, 24 h
Protocol: (§1) The method used was a dilution of a liquid medium where a series of tubes received the same quantity of a sterile nutritive media and increasing doses of the test compounds were placed therein. Then each tube was seeded with a bacterial strain and was incubated for 24 to 48 hours at 37° C. in an oven. The increasing inhibition was determined by transillumination to determine the minimum inhibiting concentration (MIC in […]) and the results are reported in the following Tables.

[2] = test system: Bacillus subtilis ATCC 6 633; assay: MIC, dilution in liquid medium; format: cell-based; details: for MIC: Bacillus subtilis, read-out: M.I.C.
Protocol: as §1

[3] = test system: Streptococcus pyogenes A 561; assay: MIC, dilution in liquid medium; format: cell-based; details: Streptococcus pyogenes, read-out: M.I.C.
Protocol: as §1

[4] = test system: Pseudomonas 3 935 Exp. SG; assay: MIC, dilution in liquid medium; format: cell-based; details: for MIC: Pseudomonas, 3935EXP.SG
Protocol: as §1

[5] = test system: Serratia Resistant Gentamicine 2 532; assay: MIC, dilution in liquid medium; format: cell-based; details: 24 h
Protocol: as §1

[6] = test system: Klebsiella pneumoniae 2 536 Resistant Gentamicine; assay: MIC, dilution in liquid medium; format: cell-based; details: Klebsiella pneumoniae
Protocol: as §1

[7] = test system: Escherichia Coli Resistant Gentamicine, Tobramycine R 55 123 D; assay: MIC, dilution in liquid medium; format: cell-based; details: Escherichia coli
Protocol: as §1

[8] = test system: Staphylococcus aureus UC 1 128 Pen-Resistant; assay: MIC, dilution in liquid medium; format: cell-based; details: for MIC: Staphylococcus aureus
Protocol: as §1

[9] = test system: Klebsiella pneumoniae Exp. 52 145; assay: MIC, dilution in liquid medium; format: cell-based; details: Klebsiella pneumoniae, read-out: M.I.C.
Protocol: as §1

[10] = test system: Streptococcus faecalis 5 432; assay: MIC, dilution in liquid medium; format: cell-based; details: Enterococcus faecalis, 5432, 48 h
Protocol: as §1

[11] = test system: Streptococcus faecalis 99 F 74; assay: MIC, dilution in liquid medium; format: cell-based; details: Enterococcus faecalis, 99F74, 48 h, 48 H
Protocol: as §1

[12] = test system: Staphylococcus aureus ATCC 5 638 Pen-Sensible = UC 1061; assay: MIC, dilution in liquid medium; format: cell-based; details: 24 h
Protocol: as §1

[13] = test system: Escherichia Coli Exp. TO26 B6; assay: MIC, dilution in liquid medium; format: cell-based
Protocol: as §1

Providencia Du 48 = assay: MIC, dilution in liquid medium; format: cell-based; details: Providencia
Protocol: as §1

[14] = test system: Proteus vulgaris (indol+) A 232; assay: MIC, dilution in liquid medium; format: cell-based; details: for MIC: Proteus vulgaris
Protocol: as §1

[15] = test system: Escherichia Coli Resistant Tetracycline ATCC 11 303 = UC 1261; assay: MIC, dilution in liquid medium; format: cell-based; details: Escherichia coli, 24 h
Protocol: as §1

[16] = test system: Salmonella typhimurium 420; assay: MIC, dilution in liquid medium; format: cell-based; details: for MIC: Salmonella enterica, TYPHIMURIUM
Protocol: as §1

[17] = test system: Proteus mirabilis (indol-) A 235; assay: MIC, dilution in liquid medium; format: cell-based; details: Proteus mirabilis, read-out: M.I.C.
Protocol: as §1

[18] = test system: Escherichia Coli Sensible Tetracycline ATCC 9 637 = 1020; assay: MIC, dilution in liquid medium; format: cell-based; details: for MIC: Escherichia coli
Protocol: as §1

For `CCO/N=C(\C(=O)N[C@@H]1C(=O)N2C(C(=O)O)=C(COC(C)=O)CS[C@H]12)c1csc(N)n1` [Example 11, 3-acetoxymethyl-7-[2-(2-amino-4-thiazolyl)-2-ethoxyiminoacetamido]-ceph-3-eme-4-carboxylic acid], the “MORTALITY AFTER 21H30” value (Proteus Mirabilis A 235; 0.025 mg subcutaneously) was 3, the “MORTALITY AFTER 22H15” value (Proteus Mirabilis A 235; 0.025 mg subcutaneously) was 1 and the “MORTALITY AFTER 24H20” value (Proteus Mirabilis A 235; 0.025 mg subcutaneously) was 1. For the same molecule, the “MORTALITY AFTER 28H” value (Proteus Mirabilis A 235; 0.025 mg subcutaneously) was 2, the “MORTALITY AFTER 46H” value (Proteus Mirabilis A 235; 0.025 mg subcutaneously) was 2 and the “MORTALITY AFTER 53H” value (Proteus Mirabilis A 235; 0.025 mg subcutaneously) was 1. The “Mice Alive on the 8th day” value (Proteus Mirabilis A 235; 0.025 mg subcutaneously) was 0/10, the “MORTALITY AFTER 22H15” value (Proteus Mirabilis A 235; 0.05 mg subcutaneously) was 1 and the “MORTALITY AFTER 24H20” value (Proteus Mirabilis A 235; 0.05 mg subcutaneously) was 1. For the same molecule, the “MORTALITY AFTER 31H45” value (Proteus Mirabilis A 235; 0.05 mg subcutaneously) was 1, the “MORTALITY AFTER 70H” value (Proteus Mirabilis A 235; 0.05 mg subcutaneously) was 2 and the “Mice Alive on the 8th day” value (Proteus Mirabilis A 235; 0.05 mg subcutaneously) was 5/10. For the same molecule, the “MORTALITY AFTER 28H” value (Proteus Mirabilis A 235; 0.1 mg subcutaneously) was 1, the “MORTALITY AFTER 46H” value (Proteus Mirabilis A 235; 0.1 mg subcutaneously) was 2 and the “Mice Alive on the 8th day” value (Proteus Mirabilis A 235; 0.1 mg subcutaneously) was 7/10. For the same molecule, the “Mice Alive on the 8th day” value (Proteus Mirabilis A 235; 0.25 mg subcutaneously) was 10/10, the “Mice Alive on the 8th day” value (Proteus Mirabilis A 235; 0.5 mg subcutaneously) was 10/10 and the “Mice Alive on the 8th day” value (Proteus Mirabilis A 235; 1 mg subcutaneously) was 10/10. The MIC [1] was 2 µg/mL (≈ 4.26 µM), the M.I.C. ([2]; 24 H) was 0,5 μg/ml and the MIC ([2]; ATCC6, 24 h, 24 H) was 0.4 µg/mL (≈ 0.852 µM). For the same molecule, the MIC ([2]; ATCC6, 48 h, 48 H) was 0.4 µg/mL (≈ 0.852 µM), the MIC ([3]; A561, 24 h, 24 H) was 0.02 µg/mL (≈ 0.0426 µM) and the MIC ([3]; A561, 48 h, 48 H) was 0.02 µg/mL (≈ 0.0426 µM). It also gave a M.I.C. ([4]; 24 H) of 40 µg/mL, an MIC ([4]; 24 h) of 20 µg/mL (≈ 42.6 µM) and an MIC ([4]; 48 h) of 40 µg/mL (≈ 85.2 µM). It also gave an MIC [5] of 2 µg/mL (≈ 4.26 µM), an MIC ([6]; 24 h) of 2 µg/mL (≈ 4.26 µM) and an MIC ([6]; 24 h, read-out: M.I.C.) of 10 µg/mL (≈ 21.3 µM). For the same molecule, the MIC ([6]; 48 h) was 2 µg/mL (≈ 4.26 µM), the MIC ([6]; 48 h, read-out: M.I.C.) was 10 µg/mL (≈ 21.3 µM) and the MIC ([7]; 24 h) was 1 µg/mL (≈ 2.13 µM). The MIC ([7]; 24 h, read-out: M.I.C.) was 0.6 µg/mL (≈ 1.28 µM), the MIC ([7]; 48 h) was 1 µg/mL (≈ 2.13 µM) and the MIC ([7]; 48 h, read-out: M.I.C.) was 0.6 µg/mL (≈ 1.28 µM). For the same molecule, the M.I.C. ([8]; 24 H) was 3 µg/mL, the M.I.C. ([8]; 48 H) was 5 µg/mL and the MIC ([8]; UC1, 24 h, 24 H) was 2 µg/mL (≈ 4.26 µM). The MIC ([8]; UC1, 48 h, 48 H) was 3 µg/mL (≈ 6.39 µM), the MIC ([9]; EXP.52145, 24 h, 24 H) was 0.2 µg/mL (≈ 0.426 µM) and the MIC ([9]; EXP.52145, 48 h, 48 H) was 0.2 µg/mL (≈ 0.426 µM). It also gave an MIC ([10]; 48 H) of 40 µg/mL (≈ 85.2 µM), an MIC ([10]; read-out: M.I.C.) of 10 µg/mL (≈ 21.3 µM) and an MIC [11] of 20 µg/mL (≈ 42.6 µM). For the same molecule, the MIC [12] was 2 µg/mL (≈ 4.26 µM), the M.I.C. ([13]; 24 H) was 0.4 µg/mL and the M.I.C. ([13]; 48 H) was 0.4 µg/mL. For the same molecule, the MIC (Providencia Du 48; DU48, 24 h, 24 H) was 5 µg/mL (≈ 10.6 µM), the MIC (Providencia Du 48; DU48, 48 h, 48 H) was 5 µg/mL (≈ 10.6 µM) and the M.I.C. ([14]; 48 H) was 1 µg/mL. The MIC ([14]; 24 h, read-out: M.I.C.) was 0.5 µg/mL (≈ 1.06 µM), the MIC ([14]; 48 h) was 2 µg/mL (≈ 4.26 µM) and the MIC [15] was ≤ 0.2 µg/mL. For the same molecule, the MIC ([15]; read-out: M.I.C.) was 0.5 µg/mL (≈ 1.06 µM), the M.I.C. ([16]; 24 H) was 2 µg/mL and the M.I.C. ([16]; 48 H) was 2 µg/mL. For the same molecule, the MIC ([16]; 24 h) was 1 µg/mL (≈ 2.13 µM), the MIC ([16]; 48 h) was 1 µg/mL (≈ 2.13 µM) and the MIC ([17]; 24 h) was 0.5 µg/mL (≈ 1.06 µM). The MIC ([17]; 48 h) was 0.5 µg/mL (≈ 1.06 µM), the M.I.C. ([18]; 24 H) was 2 µg/mL and the M.I.C. ([18]; 48 H) was 2 µg/mL. It also gave an MIC ([18]; ATCC9, 24 h, 24 H) of 1 µg/mL (≈ 2.13 µM) and an MIC ([18]; ATCC9, 48 h, 48 H) of 1 µg/mL (≈ 2.13 µM).
